Measurements reported in patent US11352352B2, “Aminopyrimidine compound, preparation method therefor and use thereof” (BEIJING ADAMADLE BIOTECHNOLOGY LIMITED LIABILITY COMPANY, priority 2017, dated 2022).

Experiments:
Assay in all cases: Cell proliferation inhibition experiment, CellTiter-Glo (CTG) method
Format in all cases: cell-based
[1] = tested on: NCI-H1975; conditions: for IC50: Homo sapiens, NCI-H1975, 72 h, NCI-H1975 cells, CTG, 3 days; for A-431/NCI-H1975 Selectivity: ratio of A-431 IC50 to NCI-H1975 IC50
Procedure: (§1) Cell Proliferation Inhibition Experiment
(§2) Compounds were tested in the selected cell lines, and solvent is set as control, nine concentrations were detected with three parallel wells for each concentration.
(§3) 2. Reagents and Materials • 1) fetal bovine serum FBS (GIBCO, Cat #10099-141) • 2) CellTiter-Glo® Luminescent Cell Viability Assay (Promega, Cat #G7572) • 3) 96-well plate with flat clear bottom, black wall plates (Corning®, Cat #3340)
(§4) The first day: Incubation and plant of cells • 1) Cells in logarithmic growth phase were harvested and counted by cell counter. Cell viability was detected by trypan blue exclusion assay to ensure that the viability of each cell line was above 90%. • 2) Cell concentration was adjusted by diluting complete culture medium, and 90 μL cell suspension was added to a 96-well plate (T0 plate and drug plate to be tested) to make the cell density reach the specified concentration. • 3) Cells in 96-well plate were incubated overnight at condition of 37° C., 5% CO2 and 95% humidity.
(§5) The second day: Reading T0 plate • 1) 10 μL culture medium was added to T0 plate. • 2) CTG reagent was melt, while the cell plate was balanced to room temperature for 30 minutes. • 3) The same volume of CTG solution was added to each well. • 4) The cell plate was vibrated for 2 minutes on an orbital shaker to lyze the cells. • 5) The cell plate was placed at room temperature for 10 minutes to stabilize the cold light signal. • 6) The cold light value was read with EnVision.
(§6) Drug Addition • 1) Drug dilution. The compounds to be tested were dissolved and packaged, then a gradient elution was performed to obtain a solution diluted 10 times. • 2) Drug addition. […] drug solution was added into each well of the 96-well plate, which was inoculated cells, three parallel wells were set for each cell concentration.
(§7) The third day: reading plate at the terminal • 1) CTG reagent was melt, while the cell plate was balanced to room temperature for 30 minutes. • 2) The same volume of CTG solution was added to each well. • 3) The cell plate was vibrated for 2 minutes on an orbital shaker to lyze the cells. • 4) The cell plate was placed at room temperature for 10 minutes to stabilize the cold light signal. • 5) The cold light value was read with EnVision
(§8) Data were analyzed using GraphPad Prism 5.0 software, and non-linear S curve regression was used for fitting the data to give a dose-effect curve, IC50 value was calculated accordingly. Cell Survival Rate (%)=(Lumdrugs−Lumcontrol)/(Lumcell−Lumcontrol)×100%.

[2] = tested on: PC-9; conditions: Homo sapiens, PC-9, 72 h, PC-9 cells, 3 days
Procedure: as §1, §2, §3, §4, §5, §6, §7, §8

[3] = tested on: A-431; conditions: Homo sapiens, A-431, 72 h, A-431 cells, 3 days
Procedure: as §1, §2, §3, §4, §5
Drug Addition • 1) Drug dilution. The compounds to be tested were dissolved and packaged, then a gradient elution was performed to obtain a solution diluted 10 times. • 2) Drug addition. […] drug solution was added into each well of the 96-well plate, which was inoculated cells, three parallel wells were set for each cell concentration. The highest concentration of the compounds to be tested on A-431 was 30 μM, nine concentrations was set with 3 times dilution; while the highest concentration on NCI-H1975 and PC-9 was 1.111 μM, 9 concentrations was set with 3 times dilution. • 3) Culture. Cells in 96-well plates in which drugs have been added were cultured at condition of 37° C., 5% CO2 and 95% humidity for 3 days, and then CTG assay was performed respectively.
as §7, §8

| SMILES | IC50 [1] | A-431/NCI-H1975 Selectivity [1] | IC50 [2] | IC50 [3] |
| --- | --- | --- | --- | --- |
| C=CC(=O)Nc1c(N(C)CCN(C)CC)cc(OC)c(Nc2cc(-c3ccc4cnn(C)c4c3)ncn2)c1F [compound 201] | 24.5 nM | 54.9 | 21.1 nM | 1340 nM |
| C=CC(=O)Nc1cc(Nc2cc(-c3ccc4c(C)nn(C)c4c3)ncn2)c(OC)cc1N1CC(C)N(C)C(C)C1 (stereo not shown) [compound 56] | 113 nM | 10.9 | 56.7 nM | 1230 nM |
| C=CC(=O)Nc1cc(Nc2cc(-c3ccc4cnn(C)c4c3)ncn2)c(OC(F)F)cc1N1CCN(CCN(C)C)CC1 [compound 182] | 53.3 nM | 32.6 | 55.9 nM | 1740 nM |
| C=CC(=O)Nc1cc(Nc2cc(-c3ccc4c(cnn4C)c3)ncn2)c(OC)cc1N1CCOCC1 [compound 102] | 14.1 nM | 70.0 | 12.5 nM | 986 nM |
| C=CC(=O)Nc1cc(Nc2cc(-c3ccc4c(cnn4C)c3)ncn2)c(OC)cc1N(C)C1CCN(CCOC)CC1 [compound 224] | 15.8 nM | 69.3 | 27.1 nM | 1090 nM |
| C=CC(=O)Nc1cc(Nc2cc(-c3ccc4cnn(C)c4c3)ncn2)c(OC)cc1N1CCN(C)[C@@H](C)C1 [compound 50] | 59.2 nM | 18.2 | 47.5 nM | 1080 nM |
| C=CC(=O)Nc1cc(Nc2cc(-c3ccc4c(cnn4C)c3)ncn2)c(OC)cc1N1CCN(C)C[C@H]1C [compound 21] | 46.4 nM | 59.7 | 29.6 nM | 2770 nM |
| C=CC(=O)Nc1cc(Nc2cc(-c3ccc4c(cnn4C)c3)ncn2)c(OC)cc1N1CCC(N2CCC(OC)C2)CC1 (stereo not shown) [compound 202] | 10.7 nM | 74.6 | 12.7 nM | 798 nM |
| C=CC(=O)Nc1cc(Nc2cc(-c3ccc4c(cnn4C)c3)ncn2)c(OC)cc1N1CCN(C2COC2)CC1 [compound 218] | 21.2 nM | 86.6 | 9.2 nM | 1830 nM |
| C=CC(=O)Nc1c(OCCN(C)C)cc(OC)c(Nc2cc(-c3ccc4c(cnn4C)c3)ncn2)c1F [compound 178] | 42.9 nM | 46.7 | 34.6 nM | 2000 nM |
| C=CC(=O)Nc1cc(Nc2cc(-c3ccc4c(cnn4C)c3)ncn2)c(OC(F)F)cc1N(C)CCNC(C)C [compound 272] | 5.6 nM | 176.3 | 13.9 nM | 987 nM |
| C=CC(=O)Nc1cc(Nc2cc(-c3ccc4cnn(C)c4c3)ncn2)c(OC)cc1N1CCN(CCOC)CC1 [compound 159] | 31.9 nM | – | 27.9 nM | 1530 nM |
| C=CC(=O)Nc1cc(Nc2cc(-c3ccc4nc(C)sc4c3)ncn2)c(OC)cc1OCCN(C)C [compound 285] | 40.6 nM | 15.6 | 23.1 nM | 633 nM |
| C=CC(=O)Nc1cc(Nc2cc(-c3ccc4cnn(C)c4c3)ncn2)c(OC(F)F)cc1N1CCC(N2C[C@@H](C)O[C@@H](C)C2)CC1 [compound 162] | 16.8 nM | 45.4 | 18.9 nM | 763 nM |
| C=CC(=O)Nc1cc(Nc2nccc(-c3ccc4c(cnn4C)c3)n2)c(OC)cc1N(C)CCN(C)C(C)C [compound 257] | 58.6 nM | 35.3 | 42.7 nM | 2070 nM |
| C=CC(=O)Nc1cc(Nc2cc(-c3ccc4c(cnn4C)c3)ncn2)c(OC)cc1N(C)[C@@H]1CCN(C)C1 [compound 110] | 8 nM | – | 6.9 nM | 599 nM |
| C=CC(=O)Nc1cc(Nc2cc(-c3ccc4c(cnn4C)c3)ncn2)c(OC)cc1N(C)C1CCN(C2CCOCC2)CC1 [compound 220] | 60.7 nM | 40.1 | 55.4 nM | 2430 nM |

| SMILES | IC50 [1] | A-431/NCI-H1975 Selectivity [1] | IC50 [2] | IC50 [3] |
| --- | --- | --- | --- | --- |
| C=CC(=O)Nc1cc(Nc2cc(-c3ccc4c(cnn4C)c3)ncn2)c(OC)cc1N1CCN(C(C)C)CC1 [compound 19] | 18.1 nM | 47.0 | 10.7 nM | 850 nM |
| C=CC(=O)Nc1cc(Nc2cc(-c3ccc4c(cnn4C)c3)ncn2)c(OC(C)C)cc1N(C)CCN(C)C [compound 75] | 24.3 nM | 61.7 | 13.6 nM | 1500 nM |
| C=CC(=O)Nc1cc(Nc2nccc(-c3ccc4c(cnn4C)c3)n2)c(OC)cc1N1CCC(N2CCN(C(C)=O)CC2)CC1 [compound 253] | 62.2 nM | 40.0 | 32.1 nM | 2490 nM |
| C=CC(=O)Nc1cc(Nc2cc(-c3ccc4cnn(C)c4c3)ncn2)c(OC)cc1N1CCN(CC)[C@H](C)C1 [compound 49] | 85.6 nM | 17.2 | 88 nM | 1470 nM |
| C=CC(=O)Nc1cc(Nc2cc(-c3ccc4c(cnn4C)c3)ncn2)c(OC(F)F)cc1N1CCN(CCO)CC1 [compound 273] | 53.3 nM | 50.2 | 79.8 nM | 2680 nM |
| C=CC(=O)Nc1cc(Nc2cc(-c3ccc4c(cnn4C)c3)ncn2)c(OCC)cc1NCCN(C)C [compound 123] | 13.7 nM | 51.0 | 15.5 nM | 698 nM |
| C=CC(=O)Nc1cc(Nc2nccc(-c3ccc4c(cnn4C)c3)n2)c(OC)cc1N(C)CCN1CCN(C(C)=O)CC1 [compound 254] | 132 nM | 17.2 | 30.9 nM | 2270 nM |
| C=CC(=O)Nc1cc(Nc2cc(-c3ccc4c(cnn4C)c3)ncn2)c(OC)cc1N1CCN(CCN(C)C)CC1 [compound 59] | 10 nM | – | 8.9 nM | 1270 nM |
| C=CC(=O)Nc1cc(Nc2nccc(-c3ccc4c(cnn4C)c3)n2)c(OC)cc1N1CCC(N(CC)CC)CC1 [compound 262] | 124 nM | 24.1 | 52.7 nM | 2980 nM |
| C=CC(=O)Nc1cc(Nc2cc(-c3ccc4c(cnn4C)c3)ncn2)c(OCC)cc1N1C[C@@H](C)N[C@@H](C)C1 [compound 265] | 20.6 nM | 78.9 | 34.7 nM | 1620 nM |
| C=CC(=O)Nc1cc(Nc2cc(-c3ccc4cnn(C)c4c3)ncn2)c(OC)cc1OCCN(C)C [compound 169] | 34.3 nM | 47.9 | 11.4 nM | 1640 nM |
| C=CC(=O)Nc1cc(Nc2cc(-c3ccc4c(cnn4C)c3)ncn2)c(OC)cc1N1CCN(C2CCOC2)CC1 (stereo not shown) [compound 214] | 19.7 nM | 77.6 | 16.7 nM | 1530 nM |
| C=CC(=O)Nc1cc(Nc2cc(-c3ccc4nc(C)sc4c3)ncn2)c(OC)cc1N(C)CCN(C)C [compound 65] | 10.9 nM | 70.2 | 12 nM | 765 nM |
| C=CC(=O)Nc1cc(Nc2cc(-c3ccc4c(cnn4C)c3)ncn2)c(OC)cc1N1CCN(C2CC2)CC1 [compound 143] | 51.6 nM | 19.2 | 23.5 nM | 988 nM |
| C=CC(=O)Nc1cc(Nc2nccc(-c3ccc4c(cnn4C)c3)n2)c(OC)cc1N1CCN(CCN(C)C)CC1 [compound 113] | 56.6 nM | 24.0 | 45.6 nM | 1360 nM |
| C=CC(=O)Nc1cc(Nc2cc(-c3ccc4c(cnn4C)c3)ncn2)c(OC)cc1N(C)C1CCN(C)C1 (stereo not shown) [compound 57] | 13.3 nM | – | – | 1420 nM |
| C=CC(=O)Nc1cc(Nc2cc(-c3ccc4c(cnn4C)c3)ncn2)c(OC)cc1N(C)C1CCOCC1 [compound 106] | 96.9 nM | 20.8 | – | 2020 nM |
